Article PMC7932537, “Quantitative profiling of protease specificity” (PLoS Computational Biology, 2021)

Key:
MMP-2 = assay: Substrate phage display with NGS: relative probability (RP) of P3-P1' tetramer clusters; format: biochemical, human; details: for relative probability (RP) of matching tetramer: P3-P1' tetramer matching the MS detected MMP2 cleavage sequence, RP_above_4.5; for avg_RP: MMP2 - no binning; for MMP2 relative probability (RP): MMP2 tetramers from unique substrates, unrounded values; for corresponding MMP2 relative probability (RP): MMP9 tetramers from unique substrates, RP of same tetramer for MMP2; for normalized RP - MMP2: normalized RP of matching tetramer
MMP-9 = assay: as above; format: biochemical, human; details: for corresponding MMP9 relative probability (RP): MMP2 tetramers from unique substrates, RP of same tetramer for MMP9; for MMP9 relative probability (RP): MMP9 tetramers from unique substrates, unrounded values; for normalized RP - MMP9: normalized RP of matching tetramer
[1] = RP of matching tetramer, common MMP2-9 selectome
[2] = MMP9, RP of the P3-P1' tetramer matching the MS detected cleavage, RP above 4.7, substrate phage display with NGS
[3] = RP of matching tetramer, common MMP2-9 selectome, RP above KL threshold
[4] = MMP2, RP of matching P3-P1' tetramer, common set of MMP2-9 selectome, RP above KL threshold
[5] = MMP9, RP of matching P3-P1' tetramer, common set of MMP2-9 selectome
[6] = RP of the P3-P1' tetramer cluster contained in the hexamer, 200 nM MMP-2, 2 h, 37°C, two rounds of selection
[7] = MMP9, RP of the P3-P1' tetramer contained in the hexamer substrate (substrate phage display, NGS)
[8] = RP of the P3-P1' tetramer, MMP2 substrate phage display/NGS, tetramers of physiologic MEROPS substrates common to MMP2 and MMP9
[9] = RP according to MMP9, P3-P1' tetramer of unique physiologic MMP9 substrates from MEROPS
[10] = RP of the P3-P1' tetramer, MMP9 substrate phage display/NGS, tetramers of physiologic MEROPS substrates common to MMP2 and MMP9
[11] = RP according to MMP2, P3-P1' tetramer of unique physiologic MMP2 substrates from MEROPS
[12] = average relative probability of the P3-P1' tetramer, redundant tetramers have been averaged out
[13] = RP of matching tetramer, unique part of MMP2 selectome, RP above KL threshold
[14] = RP of matching tetramer, unique part of MMP2 selectome
[15] = average relative probability of the tetramer, redundant tetramers averaged out

PAAV
relative probability (RP) (acc.to MMP2) (MMP-2; [1]): 30.72
relative probability (RP) (MMP-9; [2]): 36.05
relative probability (RP) (acc.to MMP9) (MMP-9; [3]): 36.05

ARAY
relative probability (RP) (acc.to MMP2) (MMP-2; [4]): 20.14
relative probability (RP) of matching tetramer (MMP-2): 20.14
relative probability (RP) (acc.to MMP2) (MMP-2; [1]): 20.14
relative probability (RP) (acc.to MMP9) (MMP-9; [5]): 36.14
relative probability (RP) (MMP-9; [2]): 36.14
relative probability (RP) (acc.to MMP9) (MMP-9; [3]): 36.14

PFGV
relative probability (RP) (acc.to MMP2) (MMP-2; [1]): 6.82
relative probability (RP) (MMP-9; [2]): 38.95
relative probability (RP) (acc.to MMP9) (MMP-9; [3]): 38.95

PIQLQS
relative probability (RP) (MMP-2; [6]): 19.2979
relative probability (RP) (MMP-9; [7]): 35.2784

IANL
avg_RP (MMP-2; average relative probability (RP) of the P3-P1' tetramer, redundant tetramers have been averaged out): 33.8805
relative probability (RP) (acc.to MMP2) (MMP-2; [4]): 33.88
relative probability (RP) of matching tetramer (MMP-2): 33.88
relative probability (RP) (acc.to MMP2) (MMP-2; [1]): 33.88
relative probability (RP) (acc.to MMP9) (MMP-9; [5]): 21.07
relative probability (RP) (MMP-9; [2]): 21.07
relative probability (RP) (acc.to MMP9) (MMP-9; [3]): 21.07

TGLT
relative probability (RP) (acc.to MMP2) (MMP-2; [8]): 0.24
Relative probability (RP) rank (MMP-9; [9]): 41284
relative probability (RP) (MMP-9; [9]): 0.21
relative probability (RP) (acc.to MMP9) (MMP-9; [10]): 0.21

PYEWHS
relative probability (RP) (MMP-2; [6]): 1.984
relative probability (RP) (MMP-9; [7]): 22.8534

APGL
MMP2 relative probability (RP) (MMP-2): 7.849
Relative probability (RP) rank (MMP-2; [11]): 5899
relative probability (RP) (MMP-2; [11]): 7.85
relative probability (RP) (acc.to MMP2) (MMP-2; [8]): 7.85
corresponding MMP9 relative probability (RP) (MMP-9): 3.776
Relative probability (RP) rank (MMP-9; [9]): 6833
relative probability (RP) (MMP-9; [9]): 3.78
relative probability (RP) (acc.to MMP9) (MMP-9; [10]): 3.78

DSPQNL
relative probability (RP) (MMP-2; [6]): 32.7851
relative probability (RP) (MMP-9; [7]): 46.8593

PGPIGI
relative probability (RP) (MMP-2; [6]): 31.281
relative probability (RP) (MMP-9; [7]): 46.0584

SIPLPL
relative probability (RP) (MMP-2; [6]): 35.0814
relative probability (RP) (MMP-9; [7]): 49.0268

AINI
relative probability (RP) (acc.to MMP2) (MMP-2; [4]): 8.5
relative probability (RP) of matching tetramer (MMP-2): 8.5
relative probability (RP) (acc.to MMP2) (MMP-2; [1]): 8.5
relative probability (RP) (acc.to MMP9) (MMP-9; [5]): 14.08
relative probability (RP) (MMP-9; [2]): 14.08
relative probability (RP) (acc.to MMP9) (MMP-9; [3]): 14.08

LAWL
avg_RP (MMP-2; [12]): 22.0358
relative probability (RP) (acc.to MMP2) (MMP-2; [4]): 22.04
relative probability (RP) of matching tetramer (MMP-2): 22.04
relative probability (RP) (acc.to MMP2) (MMP-2; [1]): 22.04
relative probability (RP) (acc.to MMP9) (MMP-9; [5]): 19.78
relative probability (RP) (MMP-9; [2]): 19.78
relative probability (RP) (acc.to MMP9) (MMP-9; [3]): 19.78

ALYL
corresponding MMP2 relative probability (RP) (MMP-2): 5.662
MMP9 relative probability (RP) (MMP-9): 1.807

PVGMKG
relative probability (RP) (MMP-2; [6]): 32.557
relative probability (RP) (MMP-9; [7]): 44.5811

TQPKAM
relative probability (RP) (MMP-2; [6]): 31.5595
relative probability (RP) (MMP-9; [7]): 48.8005

PGGV
corresponding MMP2 relative probability (RP) (MMP-2): 10.6032
MMP9 relative probability (RP) (MMP-9): 2.434

KSEL
MMP2 relative probability (RP) (MMP-2): 10.4091
Relative probability (RP) rank (MMP-2; [11]): 4754
relative probability (RP) (MMP-2; [11]): 10.41
corresponding MMP9 relative probability (RP) (MMP-9): 0.2037

PDAL
relative probability (RP) (acc.to MMP2) (MMP-2; [1]): 7.73
relative probability (RP) (MMP-9; [2]): 29.54
relative probability (RP) (acc.to MMP9) (MMP-9; [3]): 29.54

PRGVKG
relative probability (RP) (MMP-2; [6]): 29.4971
relative probability (RP) (MMP-9; [7]): 42.1832

NAQL
relative probability (RP) of matching tetramer (MMP-2): 9.69
relative probability (RP) (acc.to MMP2) (MMP-2; [13]): 9.69
normalized RP - MMP2 (MMP-2; unique part of MMP2 selectome): 0.2653
relative probability (RP) (acc.to MMP9) (MMP-9; [14]): 0
normalized RP - MMP9 (MMP-9; unique part of MMP2 selectome): 0

PMAM [P3-P1' tetramer cluster]
avg_RP (MMP-2; [15]): 30.2676
relative probability (RP) (MMP-9; tetramer probability in MMP9 set / naive library, 200 nM protease, 2 h, 37°C): 51.1831

VSSL
avg_RP (MMP-2; [12]): 29.0891
relative probability (RP) (acc.to MMP2) (MMP-2; [4]): 29.09
relative probability (RP) of matching tetramer (MMP-2): 29.09
relative probability (RP) (acc.to MMP9) (MMP-9; [5]): 17.98

NRPNNL
relative probability (RP) (MMP-2; [6]): 27.0562
relative probability (RP) (MMP-9; [7]): 38.7188

SAAQPL
relative probability (RP) (MMP-2; [6]): 14.4283
relative probability (RP) (MMP-9; [7]): 28.189

PPGS
relative probability (RP) (acc.to MMP2) (MMP-2; [8]): 0.1
relative probability (RP) (acc.to MMP9) (MMP-9; [10]): 0.2

PSQM
relative probability (RP) (acc.to MMP2) (MMP-2; [8]): 27.24
relative probability (RP) (acc.to MMP9) (MMP-9; [10]): 37.02

NVARPM
relative probability (RP) (MMP-2; [6]): 21.8664
relative probability (RP) (MMP-9; [7]): 34.8794

AAAM
relative probability (RP) (acc.to MMP2) (MMP-2; [4]): 23.42
relative probability (RP) of matching tetramer (MMP-2): 23.42
relative probability (RP) (acc.to MMP9) (MMP-9; [5]): 23.49

VGKL
MMP2 relative probability (RP) (MMP-2): 21.0562
Relative probability (RP) rank (MMP-2; [11]): 1553
relative probability (RP) (MMP-2; [11]): 21.06
corresponding MMP9 relative probability (RP) (MMP-9): 3.141
Relative probability (RP) rank (MMP-9; [9]): 7569
relative probability (RP) (MMP-9; [9]): 3.14

QGAI
relative probability (RP) (acc.to MMP2) (MMP-2; [8]): 1.94
relative probability (RP) (acc.to MMP9) (MMP-9; [10]): 0

MASQ
MMP2 relative probability (RP) (MMP-2): 16.7049
Relative probability (RP) rank (MMP-2; [11]): 2583
relative probability (RP) (MMP-2; [11]): 16.7
corresponding MMP9 relative probability (RP) (MMP-9): 0

PVLL
relative probability (RP) (acc.to MMP2) (MMP-2; [4]): 15.16
relative probability (RP) of matching tetramer (MMP-2): 15.16
relative probability (RP) (acc.to MMP2) (MMP-2; [1]): 15.16
relative probability (RP) (acc.to MMP9) (MMP-9; [5]): 19.22
relative probability (RP) (MMP-9; [2]): 19.22
relative probability (RP) (acc.to MMP9) (MMP-9; [3]): 19.22

PMAL
avg_RP (MMP-2; [15]): 34.1737
relative probability (RP) (acc.to MMP2) (MMP-2; [1]): 34.17
relative probability (RP) (MMP-9; [2]): 48.95
relative probability (RP) (acc.to MMP9) (MMP-9; [3]): 48.95

APALWI
relative probability (RP) (MMP-2; [6]): 24.3606
relative probability (RP) (MMP-9; [7]): 27.3829

ARHYKS
relative probability (RP) (MMP-2; [6]): 10.2998
relative probability (RP) (MMP-9; [7]): 23.6532

IQSI
relative probability (RP) of matching tetramer (MMP-2): 15.56
relative probability (RP) (acc.to MMP2) (MMP-2; [13]): 15.56
normalized RP - MMP2 (MMP-2; unique part of MMP2 selectome): 0.4261
relative probability (RP) (acc.to MMP9) (MMP-9; [14]): 0.41
normalized RP - MMP9 (MMP-9; unique part of MMP2 selectome): 0.007827
